# Test results published in article PMC11530130, “Peripherally restricted PICK1 inhibitor mPD5 ameliorates pain behaviors in murine inflammatory and neuropathic pain models” (JCI Insight, 2024).
# Assays:
# [1] = Size exclusion chromatography (SEC), self-assembly; format: physicochemical; conditions: Superdex200 Increase 10/300; independent of initial concentration
# Procedure: SUPPORTING INFORMATION: Method Section.
# Sex as a biological variable.
# All peptides were ordered from WuXI AppTec (Shanghai, China) or TAG-Copenhagen […]
# Protein expression and purification.
# Full length rat PICK1 (pET41) was, as described earlier (1), expressed in BL21-DE3-pLysS and grown at 37 °C, induced at OD600= 0.6 with 1 mM IPTG, and grown for 16 hours at 20 °C.
# Cultures were harvested and re-suspended in 50 mM Tris, 125 mM NaCl, 2 mM DTT (Sigma), 1% Triton X-100 (Sigma), 20 µg/mL DNAse 1 and half a tablet of cOmplete protease inhibitor cocktail (Roche) pr. 1 L culture. The resuspended pellets were frozen at -80 °C for later purification. The lysate was cleared by centrifugation (36,000 x g for 30 min at 4 °C), and the supernatant was incubated with Glutathione-Sepharose 4B beads (GE Healthcare) for two hours at 4 °C under gentle rotation and then centrifuged at 4000 x g for 5 min. The supernatant was removed, and the beads were washed twice in 35 mL 50 mM Tris, 125 mM NaCl, 2 mM DTT, and 0.01% Triton-X100. The beads were transferred to PD-10 Bio-Spin® Chromatography columns (Bio-Rad) and washed with an additional 3 column volumes. Each column was sealed and 0.075 U/µL, Novagen® was added for cleavage O/N at 4 °C under gentle rotation. PICK1 was eluted on ice and concentration was measured on a NanoDrop 3000. […]
# Size Exclusion Chromatography (SEC). […]
# [2] = test system: mice, streptozocin (STZ) model of type 1 diabetes; assay: STZ model of diabetic neuropathy, von Frey; format: in vivo, mouse
# Procedure: Induction of Diabetic neuropathy (STZ model).
# Diabetes was induced by a single i.p. injection of […] streptozocin (STZ) solution (100 μL/10 g, Sigma-Aldrich S0130, batch #WXBB7152V) in male seven-week-old C57BL/6J (Charles River) mice. Glycemia was tested before, and seven days after injection. All injected mice had blood glucose concentration >350 mg/dL from day seven and were used for analgesic testing of the compounds from day 14. One mouse had to be euthanized at seven days post injection. This experiment was performed by Phenotype Expertise, Marseilles, France - Pain and CNS behaviour CRO under supervision of Stéphane Gaillard, PhD (CEO). […]
# The skin wound was closed with two medical clips (Michel Suture Clips, 7.5x1.75 mm, Angthos, 12040-01). Post-surgical analgesia included s.c. injection of 5 mg/kg carprofen (Carprosan vet, 50 mg/mL mixed 1:25 in sterile ddH2O, Dechra, Le Vet Beheer B.V., Netherlands, Batch: 050520) right after surgery and the […]
# following day. […]
# The test battery of the CIBP model was carried out 45 or 90 min after morphine and mPD5 administration respectively to accommodate the peak efficacy […]
# Mechanically evoked pain (von Frey test).
# Unless otherwise specified, von Frey occurred as described in the following. Animals were habituated to the experimental room for a minimum of 60 min before initiation of the experiment. Mechanical paw withdrawal threshold (PWT) was determined by von Frey measurements of both hind paws. Von Frey filaments ranging from 0.04 to 2 g (g = gram- […]
# Filaments in ascending order were applied to the frontocentral plantar surface of the hind paws.
# Mice were placed in PVC plastic boxes (11.5 cm x 14 cm) on a wire mesh and allowed minimum 20 min habituation prior of experiment initiation. Each von Frey hair was applied five times with adequate resting periods between each application and number of withdrawals recorded. The withdrawal threshold was determined as the von Frey filament eliciting at least three positive trials out of the five applications in two consecutive filaments. A positive trial was defined as sudden paw withdrawal, flinching and/or paw licking induced by the filament.
# For the CIBP model, two habituation sessions were performed on separated days with mice placed in the von Frey equipment for 1-1.5 hours in the presence of the experimenter on day one and random von Frey pocking with the 0.6 g filament on day two. Von Frey monofilaments (North Coast Touch Test, North Coast Medical, Inc.) with target forces of 0.04g, 0.07g, 0.16g, […]
# down method” (PWT=10Xf+kδ) starting with the 0.6 g filament. Positive response was defined as; withdrawal, shaking or grooming of paw following a 2-3 second stimulation. In case, of unclear response, stimulus was repeated after 10-15 seconds.
# For the STZ model, the mechanical threshold response of the injected mice was measured with […]
# injection of test compounds on day 14, mechanical threshold was measured at 1 hour, 2 hours, 4 hours and 6 hours and again on day 15. […]
# Thermally evoked pain (Hargreaves test).
# A baseline Hargreaves test was performed on day 0 before inflammatory pain was induced as described in section 2.13. In the Hargreaves test, the mouse was placed in a container on a glass table and left to habituate for at least 15 min. Using the Hargreaves apparatus, a heat beam from beneath was directed towards the hind paws of the mouse, and the paw withdrawal time
compound,measurement,setting,value
"CCCCCCCCCCCCCC(=O)N(CCOCCOCCC(=O)N[C@@H](Cc1c[nH]cn1)C(=O)N[C@@H](Cc1c[nH]c2ccccc12)C(=O)N[C@@H](CC(C)C)C(=O)N[C@@H](CCCCN)C(=O)N[C@H](C(=O)O)C(C)C)CCOCCOCCC(=O)N[C@@H](Cc1c[nH]cn1)C(=O)N[C@@H](Cc1c[nH]c2ccccc12)C(=O)N[C@@H](CC(C)C)C(=O)N[C@@H](CCCCN)C(=O)N[C@H](C(=O)O)C(C)C [mPD5, myristoyl-NPEG4-(HWLKV)2]",SEC elution volume,[1],approximately 14.2 mL
same,"paw withdrawal threshold, left paw, group mean","[2]; 2 umol/kg, +1h, n = 10",0.44
same,"paw withdrawal threshold, left paw, group mean","[2]; 2 umol/kg, +2h, n = 10",0.37
same,"paw withdrawal threshold, left paw, group mean","[2]; 2 umol/kg, +4h, n = 10",0.37
same,"paw withdrawal threshold, left paw, group mean","[2]; 2 umol/kg, +6h, n = 10",0.25
same,"paw withdrawal threshold, left paw, group mean","[2]; 2 umol/kg, D15, n = 10",0.17
same,"paw withdrawal threshold, left paw, group mean","[2]; 10 umol/kg, +1h, n = 10",0.58
same,"paw withdrawal threshold, left paw, group mean","[2]; 10 umol/kg, +2h, n = 10",0.6
same,"paw withdrawal threshold, left paw, group mean","[2]; 10 umol/kg, +4h, n = 10",0.38
same,"paw withdrawal threshold, left paw, group mean","[2]; 10 umol/kg, +6h, n = 10",0.21
same,"paw withdrawal threshold, left paw, group mean","[2]; 10 umol/kg, D15, n = 10",0.28
same,extension of the effect at the highest dose,"[2]; male mice, s.c. 10 μmol/kg",extended for another hour
same,effect on mechanical hypersensitivity (PWT),"[2]; male mice, s.c. 2 and 10 μmol/kg, the first hour after injection",significant relief of mechanical hypersensitivity
